Tested on: S. intermedius 8407075
Assay: Experiment 7: effect of maltose on α-glucosidase activity, weak inocula
Format: cell-based, Staphylococcus intermedius
Parameters: key: 0 corresponds to a lack of activity; 0.1 corresponds to the presence of a trace of coloration; 0.5 corresponds to the presence of a very pale coloration; 1 corresponds to the presence of a clear coloration of weak intensity; 1.5 corresponds to the presence of a coloration which is intermediate between colorations 1 and 2; 2 corresponds to the presence of a true coloration of medium intensity; 2.5 corresponds to the presence of a coloration which is intermediate between colorations 2 and 3; 3 corresponds to the presence of an intense coloration; 3.5 corresponds to the presence of a coloration which is intermediate between colorations 3 and 4; 4 corresponds to the presence of a very intense coloration
Conditions: strain 6
Description: The maltose is solubilized in water at a concentration of, for example, 100 g/l, and then a sufficient volume to obtain the final concentrations above is added to the three molten media. The Staphylococcal strains derived from the bioMérieux internal collection were seeded onto each one of the chromogenic media on their own (closely spaced perpendicular streaks over the entire surface of the dish) using a suspension at 0.5 MacFarland diluted to 1/30000. The dishes were incubated at 37° C. for 48 hours. The colonies formed were examined visually after 18, 24 and 48 hours of incubation and the intensity of coloration of the colonies was marked. The coloration was noted and the intensity of these colorations was marked. The reading scale is the same as that used above for tables 2 and 4.

In the case of OC[C@H]1O[C@H](O[C@H]2[C@H](O)[C@@H](O)C(O)O[C@@H]2CO)[C@H](O)[C@@H](O)[C@@H]1O (mixture of isomers) [Maltose, maltose], the “Intensity of coloration of the colonies” value (18 h, Maltose 100 mg/l) is reported as 0.3, the “Intensity of coloration of the colonies” value (18 h, Maltose 300 mg/l) is reported as 0.3 and the “Intensity of coloration of the colonies” value (18 h, Maltose 400 mg/l) is reported as 0.3. The “Intensity of coloration of the colonies” value (24 h, Maltose 100 mg/l) was 0.6, the “Intensity of coloration of the colonies” value (24 h, Maltose 300 mg/l) was 0.8 and the “Intensity of coloration of the colonies” value (24 h, Maltose 400 mg/l) was 1. For the same compound, the “Intensity of coloration of the colonies” value (>40 h, Maltose 100 mg/l) was 0.8, the “Intensity of coloration of the colonies” value (>40 h, Maltose 300 mg/l) was 1 and the “Intensity of coloration of the colonies” value (>40 h, Maltose 400 mg/l) was 1.3.

From US7807439B2, “Staphylococcus aureus-specific detection media and identifying and/or counting method using same” (Biomerieux S.A., priority 2001, dated 2010)
